Measurements published in article PMC7531004, “Discovery of gramicidin A analogues with altered activities by multidimensional screening of a one-bead-one-compound library” (Nature Communications, 2020).
Where a SMILES comes first, the peptide text is derived from it. [ ]: non-standard residue; d: D form. The star is where a group is joined. NHCH2CH2OH = OCCN*; For = O=C*

Legend:
[1] = system: Streptococcus pyogenes SSI-9; test: Antibacterial activity assay of bead-derived peptides (three concentrations); type: cell-based; parameters: key: +++: inhibition by the 640-fold diluted peptide solution; ++: inhibition by the 160-fold diluted solution; +: inhibition by the 40-fold diluted solution; -: no inhibition; settings: S. pyogenes, bead-derived peptide solution, three concentrations
Method in brief: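 Undiluted, 4-fold and 16-fold DMSO-diluted peptide stocks; S. pyogenes SSI-9, 2 × 10^5 CFU, cation-adjusted MHB (50 mg/L Ca2+, 25 mg/L Mg2+) + 5% laked horse blood; 37 °C, 18 h; readout = cell pellet visible or not.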

[2] = system: P388 mouse leukemia cells; settings: 92 h
Method in brief: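 P388 cells at 1 × 10^4 cells/mL (final) were exposed to library peptides (stocks diluted 250-fold in RPMI1640/10% FBS) for 92 h at 37 °C, 5% CO2. Viable cells were counted by WST-1/1-methoxy PMS (4 h), absorbance 415 nm, and expressed as cell viability (%).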

[3] = H+/Na+ transport assay of bead-derived peptides (one-point); type: biochemical; parameters: key: relative activity; mean of two control wells = 1.00; settings: bead-derived peptide solution, EYPC/EYPG LUVs;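 further: relative to parent gramicidin A activity set to 1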
Method in brief: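 Values are normalized fluorescence, with Triton X-100 defining 100% and untreated LUVs 0%, and the two control wells averaging 1.00. Vesicles carried 1.0 mM pyranine and included egg yolk phosphatidylglycerol. Peptides were incubated with them 30 min at room temperature.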

Row | SMILES | antibacterial activity [1] | cell viability/% [2] [%] | H+/Na+ transport activity normalized against the value of 1 (1.00) [3]
1 | CNC(=O)C[C@@H](NC(=O)[C@H](Cc1c[nH]c2ccccc12)NC(=O)[C@@H](CC(C)C)NC(=O)[C@H](Cc1c[nH]c2ccccc12)NC(=O)[C@H](NC(=O)[C@H](Cc1c[nH]c2ccccc12)NC(=O)[C@@H](CC(C)C)NC(=O)[C@@H](NC(=O)[C@H](NC(=O)[C@H](C)NC(=O)[C@H](NC(=O)[C@H](C)NC(=O)CNC(=O)[C@@H](NC=O)C(C)C)C(C)C)C(C)C)C(C)C)C(C)C)C(=O)N[C@@H](Cc1c[nH]c2ccccc12)C(=O)NCCO [compound 11368] (For-VGA[dV]A[dV]V[dL]W[dV]W[dL]W[dD](NHMe)W-NHCH2CH2OH) | - | 61.1 | 1.01
2 | CC(C)C[C@@H](NC(=O)[C@H](C)NC(=O)[C@H](NC(=O)[C@H](C)NC(=O)CNC(=O)[C@@H](NC=O)C(C)C)C(C)C)C(=O)N[C@H](C(=O)N[C@@H](C(=O)N[C@@H](Cc1c[nH]c2ccccc12)C(=O)N[C@H](CC(C)C)C(=O)N[C@@H](Cc1c[nH]c2ccccc12)C(=O)N[C@@H](C(=O)N[C@@H](Cc1c[nH]c2ccccc12)C(=O)N[C@H](CC(C)C)C(=O)N[C@@H](Cc1c[nH]c2ccccc12)C(=O)NCCO)C(C)C)C(C)C)C(C)C [compound 10261] (For-VGA[dV]A[dL]V[dV]W[dL]W[dV]W[dL]W-NHCH2CH2OH) | + | 46.3 | 1.05
3 | CC(C)C[C@@H](NC(=O)[C@H](Cc1c[nH]c2ccccc12)NC(=O)[C@@H](CC(C)C)NC(=O)[C@H](Cc1c[nH]c2ccccc12)NC(=O)[C@@H](CC(C)C)NC(=O)[C@H](Cc1c[nH]c2ccccc12)NC(=O)[C@@H](CC(C)C)NC(=O)[C@@H](NC(=O)[C@H](NC(=O)[C@H](C)NC(=O)[C@H](NC(=O)[C@H](C)NC(=O)CNC(=O)[C@@H](NC=O)C(C)C)C(C)C)C(C)C)C(C)C)C(=O)N[C@@H](Cc1c[nH]c2ccccc12)C(=O)NCCO [compound 7864] (For-VGA[dV]A[dV]V[dL]W[dL]W[dL]W[dL]W-NHCH2CH2OH) | + | 10.8 | 1.01
4 | CNC(=O)C[C@@H](NC(=O)[C@@H](NC(=O)[C@H](NC(=O)[C@H](C)NC(=O)[C@H](NC(=O)[C@H](C)NC(=O)CNC(=O)[C@@H](NC=O)C(C)C)C(C)C)C(C)C)C(C)C)C(=O)N[C@@H](Cc1c[nH]c2ccccc12)C(=O)N[C@H](CC(C)C)C(=O)N[C@@H](Cc1c[nH]c2ccccc12)C(=O)N[C@H](CC(C)C)C(=O)N[C@@H](Cc1c[nH]c2ccccc12)C(=O)N[C@H](CC(C)C)C(=O)N[C@@H](Cc1c[nH]c2ccccc12)C(=O)NCCO [compound 6862] (For-VGA[dV]A[dV]V[dD](NHMe)W[dL]W[dL]W[dL]W-NHCH2CH2OH) | - | 100.0 | 1.31
5 | CC(C)C[C@@H](NC(=O)[C@H](Cc1c[nH]c2ccccc12)NC(=O)[C@H](NC(=O)[C@H](Cc1c[nH]c2ccccc12)NC(=O)[C@H](NC(=O)[C@H](Cc1c[nH]c2ccccc12)NC(=O)[C@@H](CC(C)C)NC(=O)[C@@H](NC(=O)[C@H](NC(=O)[C@H](C)NC(=O)[C@H](NC(=O)[C@H](C)NC(=O)CNC(=O)[C@@H](NC=O)C(C)C)[C@H](C)O)C(C)C)C(C)C)C(C)C)C(C)C)C(=O)N[C@@H](Cc1c[nH]c2ccccc12)C(=O)NCCO [compound 2532] (For-VGA[dT]A[dV]V[dL]W[dV]W[dV]W[dL]W-NHCH2CH2OH) | - | 100.0 | 1.22
6 | CC(C)C[C@@H](NC(=O)[C@H](C)NC(=O)CNC(=O)[C@@H](NC=O)C(C)C)C(=O)N[C@@H](C)C(=O)N[C@H](CC(C)C)C(=O)N[C@H](C(=O)N[C@H](CC(C)C)C(=O)N[C@@H](Cc1c[nH]c2ccccc12)C(=O)N[C@@H](C(=O)N[C@@H](Cc1c[nH]c2ccccc12)C(=O)N[C@H](CC(C)C)C(=O)N[C@@H](Cc1c[nH]c2ccccc12)C(=O)N[C@H](CC(C)C)C(=O)N[C@@H](Cc1c[nH]c2ccccc12)C(=O)NCCO)[C@H](C)O)C(C)C [compound 7211] (For-VGA[dL]A[dL]V[dL]W[dT]W[dL]W[dL]W-NHCH2CH2OH) | - | 100.0 | 1.03
7 | CC(C)C[C@@H](NC(=O)[C@H](C)NC(=O)CNC(=O)[C@@H](NC=O)C(C)C)C(=O)N[C@@H](C)C(=O)N[C@@H](C(=O)N[C@H](C(=O)N[C@@H](C(=O)N[C@@H](Cc1c[nH]c2ccccc12)C(=O)N[C@H](CC(C)C)C(=O)N[C@@H](Cc1c[nH]c2ccccc12)C(=O)N[C@H](CC(C)C)C(=O)N[C@@H](Cc1c[nH]c2ccccc12)C(=O)N[C@H](CC(C)C)C(=O)N[C@@H](Cc1c[nH]c2ccccc12)C(=O)NCCO)C(C)C)C(C)C)C(C)C [compound 4495] (For-VGA[dL]A[dV]V[dV]W[dL]W[dL]W[dL]W-NHCH2CH2OH) | ++ | 3.5 | 1.26
8 | CC(C)C[C@@H](NC(=O)[C@H](Cc1c[nH]c2ccccc12)NC(=O)[C@H](NC(=O)[C@H](Cc1c[nH]c2ccccc12)NC(=O)[C@H](NC(=O)[C@H](Cc1c[nH]c2ccccc12)NC(=O)[C@H](NC(=O)[C@@H](NC(=O)[C@H](NC(=O)[C@H](C)NC(=O)[C@H](NC(=O)[C@H](C)NC(=O)CNC(=O)[C@@H](NC=O)C(C)C)[C@H](C)O)C(C)C)C(C)C)C(C)C)C(C)C)C(C)C)C(=O)N[C@@H](Cc1c[nH]c2ccccc12)C(=O)NCCO [compound 9354] (For-VGA[dT]A[dV]V[dV]W[dV]W[dV]W[dL]W-NHCH2CH2OH) | - | 100.0 | 1.16
9 | CNC(=O)C[C@@H](NC(=O)[C@@H](NC(=O)[C@@H](CC(C)C)NC(=O)[C@H](C)NC(=O)[C@@H](CC(C)C)NC(=O)[C@H](C)NC(=O)CNC(=O)[C@@H](NC=O)C(C)C)C(C)C)C(=O)N[C@@H](Cc1c[nH]c2ccccc12)C(=O)N[C@H](CC(C)C)C(=O)N[C@@H](Cc1c[nH]c2ccccc12)C(=O)N[C@H](CC(C)C)C(=O)N[C@@H](Cc1c[nH]c2ccccc12)C(=O)N[C@@H](C(=O)N[C@@H](Cc1c[nH]c2ccccc12)C(=O)NCCO)[C@H](C)O [compound 2967] (For-VGA[dL]A[dL]V[dD](NHMe)W[dL]W[dL]W[dT]W-NHCH2CH2OH) | - | 100.0 | 1.04
10 | CC(C)C[C@@H](NC(=O)[C@H](C)NC(=O)CNC(=O)[C@@H](NC=O)C(C)C)C(=O)N[C@@H](C)C(=O)N[C@H](CC(C)C)C(=O)N[C@H](C(=O)N[C@H](CC(C)C)C(=O)N[C@@H](Cc1c[nH]c2ccccc12)C(=O)N[C@@H](C(=O)N[C@@H](Cc1c[nH]c2ccccc12)C(=O)N[C@@H](C(=O)N[C@@H](Cc1c[nH]c2ccccc12)C(=O)N[C@@H](C(=O)N[C@@H](Cc1c[nH]c2ccccc12)C(=O)NCCO)C(C)C)C(C)C)[C@H](C)O)C(C)C [compound 5996] (For-VGA[dL]A[dL]V[dL]W[dT]W[dV]W[dV]W-NHCH2CH2OH) | - | 78.7 | 1.08
11 | CNC(=O)C[C@@H](NC(=O)[C@H](Cc1c[nH]c2ccccc12)NC(=O)[C@H](NC(=O)[C@H](Cc1c[nH]c2ccccc12)NC(=O)[C@@H](CC(C)C)NC(=O)[C@H](Cc1c[nH]c2ccccc12)NC(=O)[C@H](NC(=O)[C@@H](NC(=O)[C@H](NC(=O)[C@H](C)NC(=O)[C@@H](CC(C)C)NC(=O)[C@H](C)NC(=O)CNC(=O)[C@@H](NC=O)C(C)C)C(C)C)C(C)C)C(C)C)C(C)C)C(=O)N[C@@H](Cc1c[nH]c2ccccc12)C(=O)NCCO [compound 7948] (For-VGA[dL]A[dV]V[dV]W[dL]W[dV]W[dD](NHMe)W-NHCH2CH2OH) | - | 100.0 | 1.04
12 | CC(C)[C@H](NC=O)C(=O)NCC(=O)N[C@@H](C)C(=O)N[C@@H](C(=O)N[C@@H](C)C(=O)N[C@@H](C(=O)N[C@H](C(=O)N[C@@H](C(=O)N[C@@H](Cc1c[nH]c2ccccc12)C(=O)N[C@@H](C(=O)N[C@@H](Cc1c[nH]c2ccccc12)C(=O)N[C@@H](C(=O)N[C@@H](Cc1c[nH]c2ccccc12)C(=O)N[C@@H](C(=O)N[C@@H](Cc1c[nH]c2ccccc12)C(=O)NCCO)C(C)C)C(C)C)C(C)C)C(C)C)C(C)C)C(C)C)[C@H](C)O [compound 8545] (For-VGA[dT]A[dV]V[dV]W[dV]W[dV]W[dV]W-NHCH2CH2OH) | - | 83.1 | 1.01
13 | CC(C)C[C@@H](NC(=O)[C@H](C)NC(=O)CNC(=O)[C@@H](NC=O)C(C)C)C(=O)N[C@@H](C)C(=O)N[C@H](CC(C)C)C(=O)N[C@H](C(=O)N[C@H](CC(C)C)C(=O)N[C@@H](Cc1c[nH]c2ccccc12)C(=O)N[C@H](CC(C)C)C(=O)N[C@@H](Cc1c[nH]c2ccccc12)C(=O)N[C@@H](C(=O)N[C@@H](Cc1c[nH]c2ccccc12)C(=O)N[C@@H](C(=O)N[C@@H](Cc1c[nH]c2ccccc12)C(=O)NCCO)C(C)C)C(C)C)C(C)C [compound 11214] (For-VGA[dL]A[dL]V[dL]W[dL]W[dV]W[dV]W-NHCH2CH2OH) | - | 2.6 | 1.02
